Molecular target: T1, BRM (Homo sapiens, UniProt P51531)
T1 construct: In-Cell Western Screen of BRM Degradation in SW1573 Cells; endogenous in cells; host or cells: SW1573
Assay: In-cell Western screen of BRM degradation in SW1573 cells (Dmax and DC50)
Assay type: cell-based
Details: BRM degradation, SW1573 cells; for DC50: read-out: DC50; for Dmax: read-out: Dmax (%) (% degraded)
Method in brief: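 After adhering overnight, cells received compound for 18-20 hours. They were then washed in cold DPBS, fixed with 4% PFA for 20 min and permeabilized for 30 min. Blocking and fluorescent secondary staining followed before imaging.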

[1] = when tested at the top concentration of between 0.3 and 10 μM

T1 sequence (P51531 whole entry): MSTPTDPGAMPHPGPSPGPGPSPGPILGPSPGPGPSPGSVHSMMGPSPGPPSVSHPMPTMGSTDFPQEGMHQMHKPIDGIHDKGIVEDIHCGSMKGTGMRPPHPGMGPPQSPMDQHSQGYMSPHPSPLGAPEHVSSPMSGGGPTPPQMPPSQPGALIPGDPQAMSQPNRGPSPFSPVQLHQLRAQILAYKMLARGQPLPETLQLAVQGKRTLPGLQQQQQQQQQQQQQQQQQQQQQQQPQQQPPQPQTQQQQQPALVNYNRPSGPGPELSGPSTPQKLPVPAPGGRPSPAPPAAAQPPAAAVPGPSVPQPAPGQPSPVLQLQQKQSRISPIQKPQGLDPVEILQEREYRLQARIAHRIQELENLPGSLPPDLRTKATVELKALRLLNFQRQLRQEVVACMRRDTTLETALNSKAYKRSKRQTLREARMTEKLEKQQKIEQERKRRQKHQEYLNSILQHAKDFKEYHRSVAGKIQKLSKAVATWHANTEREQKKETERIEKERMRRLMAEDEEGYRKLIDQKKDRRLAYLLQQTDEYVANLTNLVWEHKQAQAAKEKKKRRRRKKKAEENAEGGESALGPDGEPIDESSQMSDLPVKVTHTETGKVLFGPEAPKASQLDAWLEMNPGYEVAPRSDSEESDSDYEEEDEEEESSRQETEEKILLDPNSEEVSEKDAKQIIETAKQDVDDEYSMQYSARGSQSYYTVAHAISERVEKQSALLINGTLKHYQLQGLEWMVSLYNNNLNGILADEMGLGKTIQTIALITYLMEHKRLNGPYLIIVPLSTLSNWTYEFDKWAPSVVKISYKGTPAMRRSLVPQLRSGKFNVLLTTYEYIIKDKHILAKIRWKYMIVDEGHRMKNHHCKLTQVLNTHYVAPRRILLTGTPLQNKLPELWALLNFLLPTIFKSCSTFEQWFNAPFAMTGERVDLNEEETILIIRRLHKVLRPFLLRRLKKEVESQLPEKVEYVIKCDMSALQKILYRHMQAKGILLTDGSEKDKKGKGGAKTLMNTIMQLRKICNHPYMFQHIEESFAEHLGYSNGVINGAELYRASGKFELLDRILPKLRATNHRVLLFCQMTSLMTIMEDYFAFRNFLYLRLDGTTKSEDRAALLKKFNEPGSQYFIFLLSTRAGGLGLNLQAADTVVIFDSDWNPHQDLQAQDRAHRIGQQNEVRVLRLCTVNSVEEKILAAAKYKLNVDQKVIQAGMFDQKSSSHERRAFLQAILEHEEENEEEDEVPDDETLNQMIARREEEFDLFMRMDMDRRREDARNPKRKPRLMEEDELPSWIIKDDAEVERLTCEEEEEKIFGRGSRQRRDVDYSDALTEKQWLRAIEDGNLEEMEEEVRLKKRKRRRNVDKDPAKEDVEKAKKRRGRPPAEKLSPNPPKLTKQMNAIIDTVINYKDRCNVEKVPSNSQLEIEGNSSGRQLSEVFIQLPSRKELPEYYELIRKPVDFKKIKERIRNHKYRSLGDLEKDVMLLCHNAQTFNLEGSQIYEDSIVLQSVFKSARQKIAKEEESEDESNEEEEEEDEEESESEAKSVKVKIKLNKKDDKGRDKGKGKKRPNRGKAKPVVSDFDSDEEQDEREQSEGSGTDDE

| SMILES | DC50 [µM] | Dmax [1] [%] | Dmax (%) (% degraded) [1] |
| --- | --- | --- | --- |
| Cc1ncsc1-c1ccc(CNC(=O)[C@@H]2C[C@@H](O)CN2C(=O)[C@@H](c2cc(OCCN3CCN(CCCc4cc(N5C6CCC5CN(c5cc(-c7ccccc7O)nnc5N)C6)ccn4)CC3)no2)C(C)C)cc1 [compound 44, (2S,4R)-1-[(2R)-2-[3-(2-[4-[3-(4-[3-[3-amino-6-(2-hydroxyphenyl)pyridazin-4-yl]-3,8-diazabicyclo[3.2.1]octan-8-yl]pyridin-2-yl)propyl]piperazin-1-yl]ethoxy)-1,2-oxazol-5-yl]-3-methylbutanoyl]-4-hydroxy-N-[[4-(4-methyl-1,3-thiazol-5-yl)phenyl]methyl]pyrrolidine-2-carboxamide] | 0.01 to 0.03 | > 75 |  |
| Cc1ncsc1-c1ccc(CNC(=O)[C@@H]2C[C@@H](O)CN2C(=O)[C@@H](NC(=O)CN2CCN(CCOCCOCCCc3cc(N4C5CCC4CN(c4cc(-c6ccccc6O)nnc4N)C5)ccn3)CC2)C(C)(C)C)cc1 [compound 45, (2S,4R)-1-[(2S)-2-[2-[4-(2-[2-[3-(4-[3-[3-amino-6-(2-hydroxyphenyl)pyridazin-4-yl]-3,8-diazabicyclo[3.2.1]octan-8-yl]pyridin-2-yl)propoxy]ethoxy]ethyl)piperazin-1-yl]acetamido]-3,3-dimethylbutanoyl]-4-hydroxy-N-[[4-(4-methyl-1,3-thiazol-5-yl)phenyl]methyl]pyrrolidine-2-carboxamide] | > 0.03 | > 75 |  |
| Cc1ncsc1-c1ccc([C@H](C)NC(=O)[C@@H]2C[C@@H](O)CN2C(=O)[C@H](c2cc(OCCN3CCN(CCOc4cc(N5C6CCC5CN(c5cc(-c7ccccc7O)nnc5N)C6)ccn4)CC3)no2)C(C)C)cc1 [compound 46, (2S,4R)-1-[(2S)-2-[3-[2-(4-[2-[(4-[3-[3-amino-6-(2-hydroxyphenyl)pyridazin-4-yl]-3,8-diazabicyclo[3.2.1]octan-8-yl]pyridin-2-yl)oxy]ethyl]piperazin-1-yl)ethoxy]-1,2-oxazol-5-yl]-3-methylbutanoyl]-4-hydroxy-N-[(1S)-1-[4-(4-methyl-1,3-thiazol-5-yl)phenyl]ethyl]pyrrolidine-2-carboxamide] | > 0.03 | 50 to 75 |  |
| Cc1ncsc1-c1ccc([C@H](C)NC(=O)[C@@H]2C[C@@H](O)CN2C(=O)[C@@H](c2cc(OCCN3CCN(CCOc4cc(N5C6CCC5CN(c5cc(-c7ccccc7O)nnc5N)C6)ccn4)CC3)no2)C(C)C)cc1 [compound 47] | < 0.0025 | > 75 |  |
| Cc1ncsc1-c1ccc(CNC(=O)[C@@H]2C[C@@H](O)CN2C(=O)[C@@H](NC(=O)CN2CCN(c3ccc(CCOCCCc4cc(N5C6CCC5CN(c5cc(-c7ccccc7O)nnc5N)C6)ccn4)cn3)CC2)C(C)(C)C)cc1 [compound 48, (2S,4R)-1-((2S)-2-(2-(4-(5-(2-(3-(4-(3-(3-amino-6-(2-hydroxyphenyl)pyridazin-4-yl)-3,8-diazabicyclo[3.2.1]octan-8-yl)pyridin-2-yl)propoxy)ethyl)pyridin-2-yl)piperazin-1-yl)acetamido)-3,3-dimethylbutanoyl)-4-hydroxy-N-(4-(4-methylthiazol-5-yl)benzyl)pyrrolidine-2-carboxamide] | > 0.03 | > 75 |  |
| Cc1ncsc1-c1ccc([C@H](C)NC(=O)[C@@H]2C[C@@H](O)CN2C(=O)[C@@H](NC(=O)COC2CN(CCN3CCN(CCCc4cc(N5C6CCC5CN(c5cc(-c7ccccc7O)nnc5N)C6)ccn4)CC3)C2)C(C)(C)C)cc1 [compound 49, (2S,4R)-1-((2S)-2-(2-((1-(2-(4-(3-(4-(3-(3-amino-6-(2-hydroxyphenyl)pyridazin-4-yl)-3,8-diazabicyclo[3.2.1]octan-8-yl)pyridin-2-yl)propyl)piperazin-1-yl)ethyl)azetidin-3-yl)oxy)acetamido)-3,3-dimethylbutanoyl)-4-hydroxy-N-((S)-1-(4-(4-methylthiazol-5-yl)phenyl)ethyl)pyrrolidine-2-carboxamide] | > 0.03 | 50 to 75 |  |
| Cc1ncsc1-c1ccc([C@H](C)NC(=O)[C@@H]2C[C@@H](O)CN2C(=O)[C@@H](NC(=O)Cc2ccc(N3CCN(CCOCCCc4cc(N5C6CCC5CN(c5cc(-c7ccccc7O)nnc5N)C6)ccn4)CC3)nc2)C(C)(C)C)cc1 [compound 50, (2S,4R)-1-[(2S)-2-[2-[6-(4-[2-[3-(4-[3-[3-amino-6-(2-hydroxyphenyl)pyridazin-4-yl]-3,8-diazabicyclo[3.2.1]octan-8-yl]pyridin-2-yl)propoxy]ethyl]piperazin-1-yl)pyridin-3-yl]acetamido]-3,3-dimethylbutanoyl]-4-hydroxy-N-[(1S)-1-[4-(4-methyl-1,3-thiazol-5-yl)phenyl]ethyl]pyrrolidine-2-carboxamide] | 0.01 to 0.03 | > 75 |  |
| Cc1ncsc1-c1ccc([C@H](C)NC(=O)[C@@H]2C[C@@H](O)CN2C(=O)[C@@H](NC(=O)COCCOCCOCCCCN2CCOC3(CCN(c4cc(-c5ccccc5O)nnc4N)CC3)C2)C(C)(C)C)cc1 [compound 51, (2S,4R)-1-[(2S)-2-(2-[2-[2-(4-[9-[3-amino-6-(2-hydroxyphenyl)pyridazin-4-yl]-1-oxa-4,9-diazaspiro[5.5]undecan-4-yl]butoxy)ethoxy]ethoxy]acetamido)-3,3-dimethylbutanoyl]-4-hydroxy-N-[(1S)-1-[4-(4-methyl-1,3-thiazol-5-yl)phenyl]ethyl]pyrrolidine-2-carboxamide] | 0.01 to 0.03 | > 75 |  |
| Cc1ncsc1-c1ccc(CNC(=O)[C@@H]2C[C@@H](O)CN2C(=O)[C@@H](NC(=O)COCCOCCOCCOC/C=C/c2cc(N3C4CCC3CN(c3cc(-c5ccccc5O)nnc3N)C4)ccn2)C(C)(C)C)cc1 [compound 52, (2S,4R)-1-((S,E)-18-(4-(3-(3-amino-6-(2-hydroxyphenyl)pyridazin-4-yl)-3,8-diaza-bicyclo[3.2.1]octan-8-yl)pyridin-2-yl)-2-tert-butyl-4-oxo-6,9,12,15-tetraoxa-3-azaoctadec-17-en-1-oyl)-4-hydroxy-N-(4-(4-methylthiazol-5-yl)benzyl)pyrrolidine-2-carboxamide] | 0.01 to 0.03 | > 75 |  |
| Cc1ncsc1-c1ccc(CNC(=O)[C@@H]2C[C@@H](O)CN2C(=O)[C@@H](NC(=O)COCCOCCOCCOCCCc2cc(N3C4CCC3CN(c3cc(-c5ccccc5O)nnc3N)C4)ccn2)C(C)(C)C)cc1 [compound 53, (2S,4R)-1-((S)-18-(4-(3-(3-amino-6-(2-hydroxyphenyl)pyridazin-4-yl)-3,8-diaza-bicyclo[3.2.1]octan-8-yl)pyridin-2-yl)-2-tert-butyl-4-oxo-6,9,12,15-tetraoxa-3-azaoctadecan-1-oyl)-4-hydroxy-N-(4-(4-methylthiazol-5-yl)benzyl)pyrrolidine-2-carboxamide] | 0.0025 to 0.01 | > 75 |  |
| Cc1ncsc1-c1ccc([C@H](C)NC(=O)[C@@H]2C[C@@H](O)CN2C(=O)[C@H](c2onc(OCCN3CCN(CCOc4cc(N5C6CCC5CN(c5cc(-c7ccccc7O)nnc5N)C6)ccn4)CC3)c2Cl)C(C)C)cc1 [compound 54, (2S,4R)-1-((2S)-2-(3-(2-(4-(2-((4-(3-(3-amino-6-(2-hydroxyphenyl)pyridazin-4-yl)-3,8-diazabicyclo[3.2.1]octan-8-yl)pyridin-2-yl)oxy)ethyl)piperazin-1-yl)ethoxy)-4-chloroisoxazol-5-yl)-3-methylbutanoyl)-4-hydroxy-N-((S)-1-(4-(4-methylthiazol-5-yl)phenyl)ethyl)pyrrolidine-2-carboxamide] | > 0.03 | > 75 |  |
| Cc1ncsc1-c1ccc([C@H](C)NC(=O)[C@@H]2C[C@@H](O)CN2C(=O)[C@@H](c2onc(OCCN3CCN(CCOc4cc(N5C6CCC5CN(c5cc(-c7ccccc7O)nnc5N)C6)ccn4)CC3)c2Cl)C(C)C)cc1 [compound 55, (2S,4R)-1-((2R)-2-(3-(2-(4-(2-((4-(3-(3-amino-6-(2-hydroxyphenyl)pyridazin-4-yl)-3,8-diazabicyclo[3.2.1]octan-8-yl)pyridin-2-yl)oxy)ethyl)piperazin-1-yl)ethoxy)-4-chloroisoxazol-5-yl)-3-methylbutanoyl)-4-hydroxy-N-((S)-1-(4-(4-methylthiazol-5-yl)phenyl)ethyl)pyrrolidine-2-carboxamide] | < 0.0025 | > 75 |  |
| Cc1ncsc1-c1ccc(CNC(=O)[C@@H]2C[C@@H](O)CN2C(=O)C(c2cc(OCC=Cc3ccc(OC4CC(Oc5cc(N6C7CC[C@@H]6CN(c6cc(-c8ccccc8O)nnc6N)C7)ccn5)C4)cn3)no2)C(C)C)cc1 (stereo partly drawn) [compound 56, (2S,4R)-1-(2-(3-((3-(5-((1r,3r)-3-((4-(3-(3-amino-6-(2-hydroxyphenyl)pyridazin-4-yl)-3,8-diazabicyclo[3.2.1]octan-8-yl)pyridin-2-yl)oxy)cyclobutoxy)pyridin-2-yl)allyl)oxy)isoxazol-5-yl)-3-methylbutanoyl)-4-hydroxy-N-(4-(4-methylthiazol-5-yl)benzyl)pyrrolidine-2-carboxamide] | < 0.0025 |  | A (A > 75) |
| Cc1ncsc1-c1ccc(CNC(=O)[C@H]2C[C@H](O)CN2C(=O)C(c2cc(OCCN3CCN(CCOc4cc(N5C6CCC5CN(c5cc(-c7ccccc7O)nnc5N)C6)ccn4)CC3)no2)C(C)C)cc1 (stereo partly drawn) [compound 57, (2R,4S)-1-(2-(3-(2-(4-(2-((4-(3-(3-amino-6-(2-hydroxyphenyl)pyridazin-4-yl)-3,8-diazabicyclo[3.2.1]octan-8-yl)pyridin-2-yl)oxy)ethyl)piperazin-1-yl)ethoxy)isoxazol-5-yl)-3-methylbutanoyl)-4-hydroxy-N-(4-(4-methylthiazol-5-yl)benzyl)pyrrolidine-2-carboxamide] |  | < 50 |  |
